Laboratory results from ChEMBL document CHEMBL3797148, “Antiprotozoal activity of dehydroabietic acid derivatives against Leishmania donovani and Trypanosoma cruzi” (Medchemcomm, 2016).

How the values were obtained:
Leishmania donovani [1] = assay: Antileishmanial activity against axenic amastigote stage of Leishmania donovani MHOM/SD/1962/1S-Cl2d assessed as inhibition of parasite growth at 50 uM after 24 hrs by Alamar blue viability assay; assay type: functional; conditions: read-out: GI
L6 = assay: Cytotoxicity against rat L6 cells after 72 hrs by Alamar blue assay; assay type: cell-based; conditions: L6, 72 h
[2] = Selectivity index, ratio of IC50 for rat L6 cells to IC50 for amastigote stage of Trypanosoma cruzi Tulahuen C2C4 expressing LacZ gene infected in rat L6 cells; assay type: toxicity, cell-based; conditions: read-out: Ratio IC50
Trypanosoma cruzi = assay: Antiparasitic activity against amastigote stage of Trypanosoma cruzi Tulahuen C2C4 expressing LacZ gene infected in rat L6 cells after 96 hrs by photometric analysis; assay type: functional, organism-based; conditions: Tulahuen C2C4, L6, 96 h
Leishmania donovani [3] = assay: Antileishmanial activity against axenic amastigote stage of Leishmania donovani MHOM/SD/1962/1S-Cl2d assessed as inhibition of parasite growth at 15 uM after 24 hrs by Alamar blue viability assay; assay type: functional; conditions: read-out: GI
Leishmania donovani [4] = assay: Antileishmanial activity against axenic amastigote stage of Leishmania donovani MHOM/SD/1962/1S-Cl2d assessed as inhibition of parasite growth at 5 uM after 24 hrs by Alamar blue viability assay; assay type: functional; conditions: read-out: GI
Leishmania donovani [5] = assay: Antileishmanial activity against axenic amastigote stage of Leishmania donovani MHOM/SD/1962/1S-Cl2d assessed as inhibition of parasite growth after 24 hrs by Alamar blue viability assay; assay type: functional, organism-based
[6] = Cytotoxicity against human THP1 cells after 24 hrs by Alamar blue viability assay; assay type: cell-based; conditions: THP-1, 24 h
[7] = Selectivity index, ratio of IC50 for human THP-1 cells to IC50 for Leishmania donovani MHOM/SD/1962/1S-Cl2d axenic amastigotes; assay type: toxicity, cell-based; conditions: read-out: Ratio IC50
Leishmania donovani [8] = assay: Antileishmanial activity against Leishmania donovani promastigotes infected in human THP1 cells assessed as inhibition of amastigote growth by luciferase assay; assay type: functional, organism-based; conditions: THP-1
Leishmania donovani [9] = assay: Antileishmanial activity against axenic amastigote stage of Leishmania donovani MHOM/SD/1962/1S-Cl2d assessed as inhibition of parasite growth at 1 uM after 24 hrs by Alamar blue viability assay; assay type: functional; conditions: read-out: GI

COC(=O)CNC(=O)[C@]1(C)CCC[C@]2(C)c3ccc(C(C)C)cc3CC[C@@H]12
inhibition of growth at 50 µM (Leishmania donovani [1]): 28.7%

COC(=O)[C@@H](Cc1ccc[n+]([O-])c1)NC(=O)[C@]1(C)CCC[C@]2(C)c3ccc(C(C)C)cc3CC[C@@H]12
IC50 (L6): 85.9 µM | selectivity ratio [2]: 3 | inhibition of growth at 50 µM (Leishmania donovani [1]): 27.1% | IC50 (Trypanosoma cruzi): 32.7 µM

COC(=O)[C@H](CC1CCCCC1)NC(=O)[C@]1(C)CCC[C@]2(C)c3ccc(C(C)C)cc3C(=O)C[C@@H]12
IC50 (L6): 33.5 µM | selectivity ratio [2]: 8 | inhibition of growth at 50 µM (Leishmania donovani [1]): 90.2% | inhibition of growth at 15 µM (Leishmania donovani [3]): 76.3% | inhibition of growth at 5 µM (Leishmania donovani [4]): 33.3% | IC50 (Leishmania donovani [5]): 4.6 µM | IC50 [6]: 62.1 µM | selectivity ratio [7]: 14 | IC50 (Leishmania donovani [8]): 6.6 µM | IC50 (Trypanosoma cruzi): 4.2 µM

COC(=O)[C@H](CC(C)C)NC(=O)[C@]1(C)CCC[C@]2(C)c3ccc(C(C)C)cc3CC[C@@H]12
inhibition of growth at 50 µM (Leishmania donovani [1]): 64.9%

CC(C)c1ccc2c(c1)CC[C@H]1[C@](C)(C(=O)N[C@H](Cc3c[nH]c4ccccc34)C(=O)O)CCC[C@]21C
inhibition of growth at 50 µM (Leishmania donovani [1]): 98.3% | inhibition of growth at 15 µM (Leishmania donovani [3]): 53.9%

COC(=O)[C@@H](CCSC)NC(=O)[C@]1(C)CCC[C@]2(C)c3ccc(C(C)C)cc3CC[C@@H]12
inhibition of growth at 50 µM (Leishmania donovani [1]): 88.7% | inhibition of growth at 15 µM (Leishmania donovani [3]): 50.8%

CC(C)c1ccc2c(c1)CC[C@H]1[C@](C)(C(=O)N[C@@H](Cc3ccccc3)C(=O)O)CCC[C@]21C
IC50 (L6): 45.4 µM | selectivity ratio [2]: 1 | inhibition of growth at 50 µM (Leishmania donovani [1]): 98.1% | inhibition of growth at 15 µM (Leishmania donovani [3]): 77.6% | inhibition of growth at 5 µM (Leishmania donovani [4]): 53.1% | IC50 (Leishmania donovani [5]): 2.5 µM | IC50 [6]: 82.2 µM | selectivity ratio [7]: 33 | IC50 (Leishmania donovani [8]): 9 µM | IC50 (Trypanosoma cruzi): 33.1 µM

COC(=O)[C@@H](Cc1ccccc1)NC(=O)[C@]1(C)CCC[C@]2(C)c3ccc(C(C)C)cc3CC[C@@H]12
inhibition of growth at 50 µM (Leishmania donovani [1]): 77.5% | inhibition of growth at 15 µM (Leishmania donovani [3]): 51.5%

CC[C@H](NC(=O)[C@]1(C)CCC[C@]2(C)c3ccc(C(C)C)cc3CC[C@@H]12)C(=O)O
inhibition of growth at 50 µM (Leishmania donovani [1]): 85% | inhibition of growth at 15 µM (Leishmania donovani [3]): 5.9%

CC(C)c1ccc2c(c1)CC[C@H]1[C@](C)(C(=O)N[C@H](C(=O)O)C(C)C)CCC[C@]21C
inhibition of growth at 50 µM (Leishmania donovani [1]): 90.6% | inhibition of growth at 15 µM (Leishmania donovani [3]): 10.9%

COC(=O)[C@@H](Cc1ccc(O)cc1)NC(=O)[C@]1(C)CCC[C@]2(C)c3ccc(C(C)C)cc3CC[C@@H]12
inhibition of growth at 50 µM (Leishmania donovani [1]): 98.9% | inhibition of growth at 15 µM (Leishmania donovani [3]): 94.7% | inhibition of growth at 5 µM (Leishmania donovani [4]): 38.8% | IC50 (Leishmania donovani [5]): 11.1 µM | IC50 [6]: 21.7 µM | selectivity ratio [7]: 2

CC(C)c1ccc2c(c1)CC[C@H]1[C@](C)(C(=O)N[C@H](Cc3cccnc3)C(=O)O)CCC[C@]21C
IC50 (L6): 174 µM | selectivity ratio [2]: 2 | inhibition of growth at 50 µM (Leishmania donovani [1]): 9.8% | IC50 (Trypanosoma cruzi): 83.1 µM

CC(C)c1ccc2c(c1)C(=O)C[C@H]1[C@](C)(C(=O)N[C@@H](CC3CCCCC3)C(=O)O)CCC[C@]21C
IC50 (L6): 77.2 µM | selectivity ratio [2]: 20 | inhibition of growth at 50 µM (Leishmania donovani [1]): 99.1% | inhibition of growth at 15 µM (Leishmania donovani [3]): 98.6% | inhibition of growth at 5 µM (Leishmania donovani [4]): 82.8% | IC50 (Leishmania donovani [5]): 4 µM | IC50 [6]: 52 µM | selectivity ratio [7]: 13 | IC50 (Leishmania donovani [8]): 2.3 µM | IC50 (Trypanosoma cruzi): 3.9 µM

CC(C)c1ccc2c(c1)CC[C@H]1[C@](C)(C(=O)N[C@H](Cc3ccc[n+]([O-])c3)C(=O)O)CCC[C@]21C
inhibition of growth at 50 µM (Leishmania donovani [1]): 1.9%

CC(C)C[C@H](NC(=O)[C@]1(C)CCC[C@]2(C)c3ccc(C(C)C)cc3CC[C@@H]12)C(=O)O
inhibition of growth at 50 µM (Leishmania donovani [1]): 91.2% | inhibition of growth at 15 µM (Leishmania donovani [3]): 34.8%

C[C@@H]1[C@H](O)[C@@H](C)/C=C/C=C/C=C/C=C/C=C/C=C/C=C/[C@H](O[C@@H]2O[C@H](C)[C@@H](O)[C@H](N)[C@@H]2O)C[C@@H]2O[C@](O)(C[C@@H](O)C[C@@H](O)[C@H](O)CC[C@@H](O)C[C@@H](O)CC(=O)O[C@H]1C)C[C@H](O)[C@H]2C(=O)O [AMPHOTERICIN B]
inhibition of growth at 1 µM (Leishmania donovani [9]): > 90%

CC(C)c1ccc2c(c1)CC[C@H]1[C@](C)(C(=O)O)CCC[C@]21C [DEHYDROABIETIC ACID]
IC50 (L6): 151 µM | selectivity ratio [2]: 1 | inhibition of growth at 50 µM (Leishmania donovani [1]): 91.1% | inhibition of growth at 15 µM (Leishmania donovani [3]): 59.2% | IC50 (Trypanosoma cruzi): 101 µM
